Experimental data from patent publication US9737517B2, “Pharmaceutical use of hexahydro-dibenzo[a,g]quinolizine compounds” (SHANGHAI INSTITUTE OF MATERIA MEDICA, CHINESE ACADEMY OF …, priority 2013, dated 2017).

Tests used:
α1A-AR = target: T1, α1A-AR (Homo sapiens, UniProt P35348); test: Tag-lite receptor binding assay, HEK293 cells expressing SNAP-α1A-AR; conditions: for IC50: Tag-lite binding, HEK293 SNAP-α1A-AR; for α1B/α1A: ratio of Tag-lite binding values
T1 construct: expressed in transfected cells; host or cells: HEK293
T1 sequence (P35348 1-466): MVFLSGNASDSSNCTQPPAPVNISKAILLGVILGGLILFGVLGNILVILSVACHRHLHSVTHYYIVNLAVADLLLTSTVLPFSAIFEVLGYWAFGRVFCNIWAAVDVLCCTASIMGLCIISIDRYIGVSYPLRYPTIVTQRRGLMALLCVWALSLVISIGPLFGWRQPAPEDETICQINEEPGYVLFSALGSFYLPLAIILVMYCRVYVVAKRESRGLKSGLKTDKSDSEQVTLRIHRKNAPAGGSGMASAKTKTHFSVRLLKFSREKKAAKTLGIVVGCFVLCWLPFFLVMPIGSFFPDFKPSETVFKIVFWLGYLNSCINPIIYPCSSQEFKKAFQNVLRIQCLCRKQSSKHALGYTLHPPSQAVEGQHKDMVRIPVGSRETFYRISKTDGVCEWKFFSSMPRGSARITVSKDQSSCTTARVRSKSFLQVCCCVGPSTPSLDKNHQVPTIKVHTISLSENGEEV
Source text: (§1) Tag-lite assay was used to study receptor binding activity. Tag-lite assay was a combination of SNAP-Tag and HTRF technology, and was used to analyze surface receptors on live cell. SNAPs were small tag fusion proteins which could irreversibly, specifically and covalently bind to substrates via benzylmethyl, and the substrates were benzylmethyl guanine and benzylmethyl cytosine. Substrates and various dyes formed derivatives, and through covalent reaction, the dye was labeled onto SANPs. Plasmid was constructed using pSNAP and α1-AR encoding gene. After transfection into cells, N-terminal fusion protein of SNAP and α1-AR was expressed. The substrate and HTRF fluorescent dye (donor compound Lumi4-Tb) formed a derivative which reacted with SANP-α1-AR fusion protein so that Tb was labeled onto α1-AR. After adding acceptor fluorescent dye-labeled ligand, the receptor and ligand binding experiment was performed.
(§2) HEK293 cells stably expressing SNAP-α1A-AR, SNAP-α1B-AR, SNAP-α1D-AR were seeded in 3 cm dishes, and cultured for 24 hours. 100 nM Tag-lite SNAP Lumi4Tb was added and incubated for 1 h in an incubator. Cells were detached and washed with a labeling buffer for 4 times, and then was added into a 384-well plate in a volume of 10 μL per well. […] After incubation at room temperature for 1 hour, fluorescence intensity changes caused by cell receptor and ligand changes were detected using 665 nm (acceptor) and 620 nm (donor) at same time.
(§3) After incubation with different drugs, the reaction rate of cells to 1-AR fluorescein-labeled known ligand was calculated as follows: Reaction rate %=(D−B)/(S−B)*100%
(§4) The reaction rate of the same drug at different doses was tested using GraphPad Prism software by non-linear regression analysis, and the dose-response curve was obtained and Ki values was measured. Data were obtained from three separate experiments, and each experiment includes three duplicate wells.

[1] = test system: vascular smooth muscle (thoracic aorta); test: In vitro vascular smooth muscle experiment (norepinephrine-induced contraction of thoracic aorta rings); design: species or system Wistar rats; conditions: isolated rat thoracic aorta rings, norepinephrine 10^−7 mol/L
Method: Healthy male Wistar rats were hit head to cause faint. The abdominal cavity was quickly cut, and the thoracic aorta was taken out. The attached tissue was separated and cut into 2-3 mm vascular rings. The experiment was carried out in the same manner as in urethral smooth muscle experiment. The resting tension applied was 1 g, and when baseline was stabilized, norepinephrine was added with a final concentration of 10^−7 mol/L in bath tube. When the contraction curve reached the highest point, rinse was performed immediately to recover to baseline levels. When baseline was stabilized, test drug with different concentrations was added respectively, and incubated 3-5 mins. 20 μL 1×10^−4 M norepinephrine was added with a final concentration of 10^−7 mol/L in bath tube, and contraction curve was recorded.

α1B-AR = target: T2, α1B-AR (Homo sapiens, UniProt P35368); test: Tag-lite receptor binding assay, HEK293 cells expressing SNAP-α1B-AR
T2 construct: expressed in transfected cells; host or cells: HEK293
T2 sequence (P35368 1-520): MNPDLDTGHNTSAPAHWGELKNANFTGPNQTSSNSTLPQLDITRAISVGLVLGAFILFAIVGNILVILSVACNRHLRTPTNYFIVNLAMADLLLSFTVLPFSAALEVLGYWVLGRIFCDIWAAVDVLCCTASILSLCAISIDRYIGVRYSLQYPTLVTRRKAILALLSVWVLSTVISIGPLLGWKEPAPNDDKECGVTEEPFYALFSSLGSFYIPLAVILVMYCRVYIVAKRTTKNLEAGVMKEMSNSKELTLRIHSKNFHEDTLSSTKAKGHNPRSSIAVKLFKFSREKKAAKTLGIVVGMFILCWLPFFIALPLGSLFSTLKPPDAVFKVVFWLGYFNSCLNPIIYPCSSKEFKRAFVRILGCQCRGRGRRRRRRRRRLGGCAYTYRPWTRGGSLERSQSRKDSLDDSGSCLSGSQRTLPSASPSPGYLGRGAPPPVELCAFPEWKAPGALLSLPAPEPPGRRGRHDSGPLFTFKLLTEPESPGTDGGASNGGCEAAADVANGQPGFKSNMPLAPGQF
Source text: as §1, §2, §3, §4

urethra smooth muscle = test: In vitro urethra smooth muscle experiment (norepinephrine-induced contraction); design: species or system Wistar rats; Urethra inhibition rate (%): concentration or dose not given beside the values; conditions: for IC50: isolated rat prostatic urethra, norepinephrine 3×10^−4 mol/L; for Urethra inhibition rate (%): norepinephrine-induced contraction; for Aorta/Urethra: selectivity ratio of IC50 values
Method: Healthy male Wistar rats were hit head to cause faint. The abdominal cavity and the pubic symphysis was quickly cut so as to quickly remove the prostatic urethra, which was immediately placed into a dish filled with 4° C. Kerbs-Henseleit solution (K-H solution). The surrounding tissue were carefully separated, and muscle strips about 3-5 mm were obtained, and the lower end was fixed onto a 20 mL of thermostatic bath and the upper end was connected onto a pressure transducer. Nutrient liquid was K-H solution, and carbogen (95% oxygen and 5% carbon dioxide) was aerated, and the bath temperature was 37° C., and resting tension applied was 0.5 g. The nutrient liquid was replaced every 6-8 mins. Until baseline stabilized, norepinephrine was added with a final concentration of 3×10^−4 mol/L in bath tube. When the contraction curve reached the highest point, it was rinsed immediately to recover to baseline levels. When baseline was stabilized, test drug with different concentrations was added respectively, and incubated 3-5 mins. 60 μL 1×10^−1 M norepinephrine was added with a final concentration of 3×10^−4 mol/L in bath tube, and the contraction curve was recorded.

COc1cc2c(cc1OC)CN1CCc3cc4c(cc3[C@@H]1C2)OCO4 [DC037009, S-(−)-2,3-methylenedioxy-10,11-dimethoxy-5,8,13,13a-tetrahydro-6H-dibenzo[a,g]quinolizine]
IC50 (α1A-AR): 2.83 nM | α1B/α1A (α1A-AR): 45.3 | IC50 [1]: 1420 nM | IC50 (α1B-AR): 128 nM | IC50 (urethra smooth muscle): 1.66 nM | selectivity (Aorta/Urethra) relative to Silodosin (urethra smooth muscle; isolated rat tissues): 11 folds | selectivity (Aorta/Urethra) relative to tamsulosin (urethra smooth muscle; isolated rat tissues): 1671 folds | urethra suppression rate compared with positive drugs (urethra smooth muscle; isolated rat urethra): comparable to that of the positive drugs | Urethra inhibition rate (%) (urethra smooth muscle; isolated rat urethra): 80% | Aorta/Urethra (urethra smooth muscle; isolated rat tissues): 873

COc1cc2c(cc1OCc1ccccc1)C[C@H]1c3cc4c(cc3CCN1C2)OCO4 [DC037016]
IC50 (α1A-AR): 16.6 nM | α1B/α1A (α1A-AR): 33.8 | IC50 [1]: 10000 nM | IC50 (α1B-AR): 560 nM | IC50 (urethra smooth muscle): 5.12 nM | Urethra inhibition rate (%) (urethra smooth muscle; isolated rat urethra): 38% | Aorta/Urethra (urethra smooth muscle; isolated rat tissues): 1953

C[C@H](Cc1cc2c(c(C(N)=O)c1)N(CCCO)CC2)NCCOc1ccccc1OCC(F)(F)F [Silodosin, reference compound]
IC50 (α1A-AR): 0.07 nM | α1B/α1A (α1A-AR): 8.7 | IC50 [1]: 63 nM | IC50 (α1B-AR): 0.61 nM | IC50 (urethra smooth muscle): 0.82 nM | Urethra inhibition rate (%) (urethra smooth muscle; isolated rat urethra): 88% | Aorta/Urethra (urethra smooth muscle; isolated rat tissues): 76.8
